“Also recorded” adds a separate entry of the source. Where a name gives a salt, the structure may show the parent alone.
Tests used:
[1] = tested on: CRTC-1::RFP localization in C. elegans intestinal cells; experiment: CRTC-1::RFP localization during tricaine time course (microscopy); type: in vivo
Description: Except for tricaine time course experiments, worms were in 5 μl anesthetic mounted on 2% agarose pads on glass slides under glass cover slips. All photos were taken using a Zeiss Axiovert microscope & Axiocam. Pictures in FIGS. 2a and 3b used apotome optical sectioning. For the tricaine experiments (FIG. 4a&b), L4 worms were placed in wells of a 96 well plate in 100 μl of tetramisole/M9 with or without tricaine (2 mg/ml). Pictures were taken during time course through the 96 well plate.

[2] = tested on: CRTC-1::RFP localization in intestinal cells; experiment: Kinase redundancy assay: CRTC-1::RFP localization after tricaine treatment and removal; type: in vivo, C. elegans
Description: Worms were subjected to RNAi for AMPK family kinases from hatch. 24 hours post L4 worms were then picked into M9 with tricaine (2 mg/ml) in wells of a […]. Worms were left on a rotational shaker at 20° C. for 2 hours. Using a glass pipette (Mair, W. A simple yet effective method to manipulate C. elegans in liquid. Worm Breeders Gazette 18 (2009)), worms were then placed onto NG plates seeded with E. coli (0P50). When tricaine solution had evaporated (approx 20 min), worms were picked onto fresh OP50 plates, 5 worms per plate. […] Time=0 was when moved to fresh OP50 plates.

[3] = aak-1 (tm1944), aak-2 (ok524) mutants (AMPK null)

Compound | effect on CRTC-1 localization ([1]; 0.1 mg/ml in M9 as anesthetic, pilot experiments) | CRTC-1::RFP localization ([1]; CRTC-1::RFP with calcineurin (TAX-6) binding site mutated, 60 minutes of tricaine treatment) | CRTC-1::RFP localization ([1]; tax-6 (ok2065) deletion mutant, up to 2 hours of tricaine treatment) | CRTC-1::RFP localization ([1]; wild type background, intestinal cells, tricaine (2 mg/ml) in M9) | time to CRTC-1::RFP nuclear localization ([1]; wild type background, tricaine added in M9) | re-location of CRTC-1::RFP to the cytosol upon drug removal [2, 3] | tricaine-induced nuclear localization of CRTC-1::RFP [2, 3] | re-location of CRTC-1::RFP to the cytosol upon drug removal ([2]; aak-1 (tm1944), aak-2 (ok524) mutants (AMPK null), listed as Tricaine) | reversibility of CRTC-1 nuclear localization after drug removal ([2]; wild type background)
c1ccc(C2CN3CCSC3=N2)cc1 (stereo not drawn) [tetramisole hydrochloride] | no effect | – | – | – | – | – | – | – | –
CCOC(=O)c1cccc(N)c1 [tricaine] | – | did not shuttle into the nucleus; also recorded: no effect | invariably cytosolic; also recorded: does not respond | rapid nuclear localization | ≤ 30 min | relocated to the cytoplasm | expedited | delayed | reversible within two hours

From patent publication US20120172413A1, “INCREASING LIFESPAN BY MODULATING CRTC EXPRESSION OR LOCALIZATION, AND METHODS OF SCREENING FOR MODULATORS OF SAME” (THE SALK INSTITUTE FOR BIOLOGICAL STUDIES, priority 2009, published 2012)
